Target: T1, rice OsPYL2 + Arabidopsis AtHAB1 (Oryza sativa subsp. japonica, UniProt Q5Z8S0)
T1 construct: made in house; host or cells: E. coli BL21 (DE3)
T1 sequence (Q5Z8S0 1-207): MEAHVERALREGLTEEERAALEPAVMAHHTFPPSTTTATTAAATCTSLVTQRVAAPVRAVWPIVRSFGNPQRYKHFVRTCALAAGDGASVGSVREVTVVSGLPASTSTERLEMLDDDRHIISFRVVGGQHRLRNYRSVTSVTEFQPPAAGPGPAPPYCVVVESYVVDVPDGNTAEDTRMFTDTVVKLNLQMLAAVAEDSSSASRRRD
T1 sequence (Q9CAJ0 172-511 partner limits assumed): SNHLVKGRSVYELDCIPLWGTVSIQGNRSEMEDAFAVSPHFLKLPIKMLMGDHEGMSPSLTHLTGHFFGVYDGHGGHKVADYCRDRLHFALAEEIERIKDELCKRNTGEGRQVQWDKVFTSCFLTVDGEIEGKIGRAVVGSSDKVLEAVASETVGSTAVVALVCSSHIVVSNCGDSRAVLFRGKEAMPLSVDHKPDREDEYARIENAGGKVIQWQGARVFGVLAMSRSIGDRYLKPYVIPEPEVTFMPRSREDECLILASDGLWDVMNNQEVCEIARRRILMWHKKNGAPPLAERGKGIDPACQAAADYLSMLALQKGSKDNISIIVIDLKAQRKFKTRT
Assay: AlphaScreen assay: promotion of the interaction of rice OsPYL2 with Arabidopsis HAB1
Format: binding, rice (OsPYL2); Arabidopsis thaliana (HAB1)
Details: FIG. 13b; 6×His-SUMO-tagged rice OsPYL2, Biotin-tagged Arabidopsis HAB1 (aa 172-511), 100 nM each; pH 7.4; 1.5 h room temperature
Excerpt: Compound 0428 can promote the interaction of the Arabidopsis protein phosphatase HAB1 with soybean GmPYL6 or rice OsPYL2, and this interaction is dose-dependent.
The construction method of recombinant plasmids for the Arabidopsis thaliana genes PYL1 (amino acid sequence 36-211), PYL2 (amino acid sequence 14-188) with dual tags of 6×His and SUMO sequence and the Arabidopsis thaliana gene HAB1 (amino acid sequence 172-511) with the Biotin tag sequence is described in detail in “A gate-latch-lock mechanism for hormone signaling by abscisic acid receptors” (Nature, Vol 462, 2009). The construction method of recombinant plasmids for PYR1 and PYL7 (whole gene coding sequence) and Soybean GmPYL6 and rice OsPYL2 with dual tags of 6×His and SUMO sequence is the same as that for Arabidopsis PYL2.
The above recombinant plasmid is transformed into competent cell of E. coli BL21 (DE3) (purchased from NEB company), and inoculated into 200 ml of LB liquid medium containing Amp resistance (purchased from OXOID company) and cultured overnight at 37° C. at 200 rpm; and inoculated into 2 L of LB liquid medium containing Amp resistance at a ratio of 1:50-1:100 for an extended culture, and cultured at 37° C., 200 rpm for 3-4 hours, and at a low temperature of 16° C. until OD600 is about 0.8-1.0. […]

CC1=CC(=O)CC(C)(C)[C@@]1(O)/C=C/C(C)=C\C(=O)O [ABA, Abscisic Acid, reference compound]
EC50: 0.149 µM
